Reference: ChEMBL document CHEMBL3286250, “Oxirapentyns F-K from the marine-sediment-derived fungus Isaria felina KMM 4639” (J Nat Prod, 2014)
pIC50: −log10 of the molar value. The source made the active and inactive calls. No cut-off for these calls is given here.

How the values were obtained:
Bacillus subtilis = test: Antimicrobial activity against Bacillus subtilis KMM 430 by agar diffusion method; type: functional, organism-based
Pseudomonas aeruginosa = test: Antimicrobial activity against Pseudomonas aeruginosa KMM 433 by agar diffusion method; type: functional, organism-based
Escherichia coli = test: Antimicrobial activity against Escherichia coli ATCC 15034 by agar diffusion method; type: functional, organism-based
Candida albicans = test: Antimicrobial activity against Candida albicans KMM 455 by agar diffusion method; type: functional, organism-based
Staphylococcus aureus = test: Antimicrobial activity against Staphylococcus aureus ATCC 21027 by agar diffusion method; type: functional, organism-based
HL-60 = test: Cytotoxicity against human HL60 cells after 46 hrs by MTS assay; type: functional, cell-based; details: HL-60, 46 h
[1] = Cytotoxicity against CD1 mouse splenocytes up to 100 uM after 46 hrs by MTS assay; type: cell-based; details: splenocyte
THP-1 = test: Cytotoxicity against human THP1 cells after 46 hrs by MTS assay; type: functional, cell-based; details: THP-1, 46 h
[2] = Cytotoxicity against CD1 mouse erythrocytes up to 100 uM after 46 hrs by MTS assay; type: cell-based; details: erythrocyte

Row | SMILES | Activity (Bacillus subtilis) | Activity (Pseudomonas aeruginosa) | Activity (Escherichia coli) | Activity (Candida albicans) | Activity (Staphylococcus aureus) | pIC50 (HL-60) | Activity [1] | pIC50 (THP-1) | Activity [2]
1 | C=C(C)C#C[C@]1(O)[C@@H](O)[C@@H]2OC(C)(C)[C@H](OC(C)=O)C[C@@]23O[C@H]3[C@@H]1O | inactive | inactive | inactive | inactive | inactive |  |  |  | 
2 | CC(=O)O[C@@H]1C[C@]23O[C@H]2C2=C(C(=O)CC(C)(C)O2)[C@@H](O)[C@@H]3OC1(C)C | inactive | inactive | inactive | inactive | inactive |  |  |  | 
3 | C=C(C)C#C[C@@]1(O)[C@@H](O)[C@H](O)[C@]2(OC(C)=O)C[C@@H](O)C(C)(C)O[C@H]2[C@@H]1O | inactive | inactive | inactive | inactive | inactive |  |  |  | 
4 | C=C(C)C#C[C@]12O[C@H]1[C@@H]1OC(C)(C)[C@H](OC(C)=O)C[C@@]1(O)[C@@H](O)[C@@H]2O | inactive | inactive | inactive | inactive | inactive |  |  |  | 
5 | COC(=O)/C=C/C(O)=C1\COCC(OC(C)=O)=C1C(=O)OC | inactive | inactive | inactive | inactive | inactive | 5.37 | Non-toxic | 4.43 | Non-toxic
